Paper PMC6394990, “Detailed characterization of the solution kinetics and thermodynamics of biotin, biocytin and HABA binding to avidin and streptavidin” (PLoS ONE, 2019)
Several values for one entry are separate records, joined by “and”; a condition that tells them apart may be missing. Identical values can stand only once.

Key:
streptavidin (SAV) = target: T1, streptavidin (SAV) (Streptomyces avidinii, UniProt P22629); assay: Fluorescence lifetimes, SAV complex; format: physicochemical; conditions: for t (1), fluorescence lifetime: complex with SAV, t for BFl and BcO, average lifetime for B-DNAds*Fl
T1 construct: purchased Sigma Aldrich (St. Louis, MO)
Procedure: (§1) The lifetimes (τ), steady state anisotropies (rss), time-resolved anisotropies (rt) and quantum yields (QY) of the complexes (at 20 ± 0.1°C and pH 8) were collected with a dye-labeled B7 probe concentration of 20–40 nM and 1040–2080 nM of either protein (AV or SAV) to ensure that only one binding site in the tetramer was filled with a ligand (AB1 filling model).
(§2) The lifetimes were collected in a FluoTime100 fluorescence spectrometer (PicoQuant, GmbH, Berlin, Germany) with the excitation light source provided by a picosecond pulsed diode laser (PicoQuant, GmbH, Berlin, Germany) at 470 nm and 20 MHz. The emission was collected at 520 nm through a non-fluorescing 520 nm interference filter (Oriel Corp., Stratford, CT) followed by a liquid filter of 1cm path length containing 24 mM acetate buffered dichromate at pH 4, between the sample and detector to eliminate traces of excitation light. The fluorescence decays were fit by a nonlinear least-squares minimization based on the Marquardt algorithm embedded in the Fluofit software (PicoQuant GmbH). Twenty-eight decays were collected per sample, the decays were grouped in four sets, consisting of seven sample decays and one Instrument Response Function, IRF, for deconvolution proposes. The decay sets were globally fitted to mono- or bi-exponential decay models that were discriminated using the statistical parameter χ^2. The rt data were acquired with the fluorimeter described above equipped with a polarizer and an analyzer to acquire the parallel VV(t) and perpendicular VH(t) decays. The PicoQuant G factor was calculated according to: G = ∫HV(t)dt/∫HH(t)dt, where HV(t) and HH(t) were the decays collected with the emission polarizer selecting vertical and horizontal E-vector passing orientations, respectively, and the excitation polarizer set at horizontally position.

avidin (AV) [1] = target: T2, avidin (AV) (Gallus gallus, UniProt P02701); assay: Absorbance and fluorescence emission spectra, AV complex; format: physicochemical; conditions: for Maximum Absorbance / Maximum Emission: AV complex (AB1); for Abs (nm) / Emission (nm): complex with AV
T2 construct: purchased Calbiochem (La Jolla, CA)
Procedure: as §1
The QY values were obtained by using a reference fluorophore of known quantum yield and were calculated according to Parker and Rees, where the reference dye was fluorescein in 0.1N sodium hydroxide solution [46]. The emission fluorescence scans were collected from 480 nm to 700 nm with the excitation light set at 460 nm provided by the xenon arc lamp described above. These measurements were made on the AB1 complexes at high protein concentration.
Supplementary file pone.0204194.s001.docx: S1 Fig Absorbance spectra of dye-labeled B7 probes and respective complexes with AV and SAV. […] The spectra are normalized to the calculated molar absorptivies. […] The labeled probes and protein concentrations were 1 μM and 10 μM, respectively. (DOCX) Click here for additional data file.
Supplementary file pone.0204194.s002.docx: S2 Fig Fluorescence emission spectra of dye-labeled B7 and respective complexes with AV and SAV. […] The probe and protein concentrations were 20 nM and 1040 nM (AB1 filling model), respectively. (DOCX) Click here for additional data file.

[2] = Time-resolved anisotropy, cone angle, unbound probe; format: physicochemical; conditions: unbound dye
Procedure: as §2, with “Twenty-eight decays were collected per sample, the decays were grouped in four sets, consisting of seven sample decays and one Instrument Response Function, IRF, for deconvolution proposes. The decay sets were globally fitted to mono- or bi-exponential decay models that were discriminated using the statistical parameter χ^2. The rt data were acquired with the fluorimeter described above equipped with a polarizer and an analyzer to acquire the parallel VV(t) and perpendicular VH(t) decays.” left out, “position. […]” for “position.”
In a simple model, the transition moment is assumed to wobble within a cone of semi-apical angle Ω [59], where the cone axis is normal to the surface of a sphere that corresponds to the macromolecule. The angle Ω is calculated from Eq 14.

de-glycosylated AV = target: T3, de-glycosylated AV (Gallus gallus, UniProt P02701); assay: Stopped-flow association kinetics with endoglycosidase H de-glycosylated avidin; format: binding
T3 construct: purchased Calbiochem (La Jolla, CA)
Procedure: These reactions were carried out in a buffered solution of 10 mM Tris-HCl, 100 mM KCl, 2.5 mM MgCl2 and 1 mM CaCl2 at pH 8 and only AV-BcO reactions included pH 9 and 10. The concentrations, after mixing, were of 20 nM of dye-labeled B7 probe and 260 nM, 520 nM or 1040 nM of AV; and 200 nM, 300 nM, 400 nM or 800 nM of SAV at temperatures of 10, 15, 20 and 25°C. The deglycosylation of AV (for comparative association reactions) was carried out using the provided standard protocol with endoglycosidase H [47], both with and without incubation of a denaturant solution (2% SDS and 1M 2-mercaptoethanol).
The reactions were collected with the SF instrument, described previously. The fluorescence signal was collected through a 520 nm interference filter (Oriel Corp., Stratford, CT) with a detector time constant and SF dead time of 1 μs and 1 ms, respectively. The excitation light was provided by the Coherent Ar^+ ion laser (described above) at 488 nm with […] of incident power on the reaction cuvette. The laser source was followed by the photo-elastic modulator described above with the axis oriented 45^o with respect to the electric vector of the incident light and with the half-wave modulation (50 kHz) set for 488 nm excitation. The demodulation circuitry following the photomultiplier provided a DC(t) and a rectified AC(t) which were converted to digital data by a high-speed digitizer (PCI-5122) from National Instruments (Austin, TX) with 14-bit resolution and 100 MHz bandwidth, through channels 0 and 1. The data acquisition was controlled by LabVIEW (Vr 8) software at a collection rate of 6120 data points/second and stored in spreadsheets. The AC(t) and DC(t) data were baseline corrected before obtaining the signal ratio (Eq 4) as a function of time (ρt).

avidin (AV) [3] = target: T2, avidin (AV); assay: Intrinsic lifetime, dynamic quantum yield and fraction of non-statically quenched molecules, AV complex; format: physicochemical; conditions: for Dynamic Quantum Yield Φ / Fraction of Non-Statically Quenched Dye 1-S / Natural Lifetime τ°: AV complex (AB1); for 1-S (4) = QY/F, fraction of non-statically quenched molecules / F (3) = Sat/t° / S / t° (2), intrinsic lifetime of the fluorescence dye: complex with AV; for t° (2), intrinsic lifetime of the fluorescence dye: in ns

T1 sequence (P22629 25-183): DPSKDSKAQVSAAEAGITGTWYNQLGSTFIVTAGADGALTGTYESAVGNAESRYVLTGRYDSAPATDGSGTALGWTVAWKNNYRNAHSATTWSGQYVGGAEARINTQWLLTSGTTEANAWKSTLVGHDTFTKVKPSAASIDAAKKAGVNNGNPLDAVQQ
T3 sequence (P02701 25-152): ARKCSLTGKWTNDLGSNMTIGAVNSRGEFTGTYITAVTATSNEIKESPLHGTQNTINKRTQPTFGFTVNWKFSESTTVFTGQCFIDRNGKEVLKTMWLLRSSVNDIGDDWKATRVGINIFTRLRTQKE
T2 sequence (P02701 25-152): as above

| Compound | t (1), fluorescence lifetime (streptavidin (SAV)) | Maximum Absorbance (avidin (AV) [1]) [nm] | Maximum Emission (avidin (AV) [1]) [nm] | Abs (nm) (avidin (AV) [1]) | Emission (nm) (avidin (AV) [1]) | W [2] [°] | Dynamic Quantum Yield Φ (avidin (AV) [3]) | Fraction of Non-Statically Quenched Dye 1-S (avidin (AV) [3]) | Natural Lifetime τ° (avidin (AV) [3]) | 1-S (4) = QY/F, fraction of non-statically quenched molecules (avidin (AV) [3]) | F (3) = Sat/t° (avidin (AV) [3]) | S (avidin (AV) [3]) | t° (2), intrinsic lifetime of the fluorescence dye (avidin (AV) [3]) | also measured |
| --- | --- | --- | --- | --- | --- | --- | --- | --- | --- | --- | --- | --- | --- | --- |
| O=C(CCCC[C@@H]1SC[C@@H]2NC(=O)N[C@@H]21)NCCNC(=O)c1ccc(-c2c3ccc(=O)cc-3oc3cc(O)ccc23)c(C(=O)O)c1 [BFl, Biotin-4-fluorescein] | 3.69 ± 0.01 | 498 | 528 | 498 | 528 | 90 | 0.90 ± 0.02 | 0.49 ± 0.03 | 4.7 ± 0.1 | 0.49 and 0.49 ± 0.03 | 0.90 ± 0.02 | 0.51 | 4.7 ± 0.1 | Σαiτi (integrated lifetime) (streptavidin (SAV); SAV complex): 3.70 ± 0.05 ns; α1 (streptavidin (SAV); SAV complex): 0.61 ± 0.03; α2 (streptavidin (SAV); SAV complex): 0.39 ± 0.03; τ1 (streptavidin (SAV); SAV complex): 4.10 ± 0.02 ns; τ2 (streptavidin (SAV); SAV complex): 3.1 ± 0.02 ns; Lifetime τ (streptavidin (SAV); SAV complex, di-ionic fluorescein species): 4.1 ns and 4.1 ± 0.1 ns; Lifetime τ (streptavidin (SAV); SAV complex, mono-ionic fluorescein species): 3.0 ns and 3.0 ± 0.1 ns; ln(k) (de-glycosylated AV; deAV 15C (288.15 K), pH8): 15.5; k(average) (de-glycosylated AV; deAV 15C (288.15 K), pH8, full value): 5.36E+06; k(average) (de-glycosylated AV; deAV 15C (288.15 K), pH8, scaled): 5.4 |
| NC(CCCCNC(=O)CCCC[C@@H]1SC[C@@H]2NC(=O)N[C@@H]21)C(=O)NCCCCCNC(=O)c1ccc(-c2c3cc(F)c(=O)cc-3oc3cc(O)c(F)cc23)c(C(=O)O)c1 (some centres unmarked) [BcO, Oregon green 488 Biocytin] | 3.98 ± 0.01 | 497 | 524 | 497 | 524 | 90 | 0.88 ± 0.02 | 0.70 ± 0.03 | 4.9 ± 0.1 | 0.7 and 0.70 ± 0.03 | 0.88 ± 0.02 | 0.3 | 4.9 ± 0.1 | Lifetime τ (streptavidin (SAV); SAV complex (AB1), 20°C, pH 8): 3.98 ± 0.01 ns; kon (de-glycosylated AV; de-glycosylated AV, 15°C): 3.7e+06 M⁻¹ s⁻¹ |
